Data set [1] has as its system glucose-6-phosphatase (G6Pase) activity in H4IIE hepatocytes. In words: Glucose-6-phosphatase activity in H4IIE hepatocytes. The data set is classed as cell-based, murine. The conditions noted are these: 25 μM, 16 h. As to the method:
2.4 Glucose-6-phosphatase activity in H4IIE hepatocytes: H4IIE murine hepatocytes (American Type Culture Collection) were cultured to confluence in 12-well plates in DMEM supplemented with 10% FBS and antibiotics. […] Effects of test compounds on cellular viability were assessed by measuring the release of lactate dehydrogenase (LDH) into the culture medium at the end of a 16 h treatment using a commercial kit (Cytotoxicity Detection Kit; Roche Diagnostics; Laval, QC) as per the manufacturer's instructions; LDH release was expressed as % of total (medium+lysate) LDH content for each well. Cells were also routinely inspected for abnormal morphology by phase-contrast microscopy at the conclusion of the treatment period. Following treatment, cells were washed in HEPES-buffered saline (10 mM HEPES, pH 7.4, 150 mM NaCl) at 37° C. Glucose-6-phosphatase (G6Pase) activity was assessed by measuring the rate of glucose formation in the presence of a non-limiting amount of glucose-6-phosphate (G6P), as done by others [39B, 40B]. Glucose production was measured with a commercial glucose assay kit (AutoKit Glucose; Wako Diagnostics; Richmond, Va.). Two hundred μl of AutoKit Glucose buffer solution diluted 1:4 in water were added to each well. Cells were then lysed by the addition of 50 μl of 0.05% Triton X-100 in similarly diluted AutoKit Glucose buffer solution. […] At 37° C., after which time 500 μl of AutoKit Glucose color reagent were added and incubation was continued for exactly 5 min. Samples were then rapidly transferred to microcentrifuge tubes. Fifty μl were removed for assay of total protein content in order to account for effects of test compounds on cellular viability or proliferation [41B]. A commercial protein assay kit based on the Bradford method was used (Protein Assay; Bio-Rad Laboratories; Hercules, Calif.). […] The remaining volume was centrifuged at 3000×g for 5 min. Absorbance of the supernatant was measured at 505 nm at ambient temperature and glucose concentration was calculated from a standard curve performed in parallel. Control wells without exogenous G6P were included on each plate for each treatment condition and activity measured from these wells was subtracted from activity measured in the presence of exogenous G6P. G6Pase activity calculated in this way was then expressed normalized to protein content on a well-by-well basis. Two independent experiments in cells of different passages were performed for each of the selected test compounds, with four to six replicates per condition per experiment.
Protocol for assay of glucose-6-phosphatase activity in H4IIE or other hepatocytes: H4IIE murine hepatocytes (American Type Culture Collection) may be cultured to confluence in 12-well plates in Dulbecco's modified Eagle's medium (DMEM) supplemented with 10% fetal bovine serum (FBS), and antibiotics. […] Effects of test compounds on cellular viability may be assessed by measuring the release of lactate dehydrogenase (LDH) into the culture medium at the end of a 16 hour treatment using a commercial kit (e.g., Cytotoxicity Detection Kit; Roche Diagnostics; Laval, QC) as per the manufacturer's instructions; LDH release may be expressed as % of total (i.e., medium+lysate) LDH content for each well. Cells may also be routinely inspected for abnormal morphology by phase-contrast microscopy at the conclusion of the treatment period. Following treatment, cells may be washed in HEPES-buffered saline (10 mM HEPES, pH 7.4, 150 mM NaCl) at 37° C. Glucose-6-phosphatase (G6Pase) activity may be assessed by measuring the rate of glucose formation in the presence of a non-limiting amount of glucose-6-phosphate (G6P). Glucose production may be measured with a commercial glucose assay kit (e.g., AutoKit Glucose; Wako Diagnostics; Richmond, Va.). Two hundred μl of AutoKit Glucose buffer solution diluted 1:4 in water may be added to each well.

The test system of data set [2] is isolated rat liver mitochondria. Briefly: Uncoupling activity: increase in basal (state 4) oxygen consumption by oxygraphy. The data set is classed as biochemical. The conditions noted are these: for Uncoupling (%): increase in basal (state 4) oxygen consumption as % of average ADP-stimulated (state 3) rate in vehicle-treated mitochondria.
For the next data set, the system named is H4IIE hepatocytes. In words: Lactate dehydrogenase (LDH) release, cellular viability. It counts as cell-based, murine. As to conditions: 25 μM, 16 h. As to the method:
2.4 Glucose-6-phosphatase activity in H4IIE hepatocytes: H4IIE murine hepatocytes (American Type Culture Collection) were cultured to confluence in 12-well plates in DMEM supplemented with 10% FBS and antibiotics. […] Effects of test compounds on cellular viability were assessed by measuring the release of lactate dehydrogenase (LDH) into the culture medium at the end of a 16 h treatment using a commercial kit (Cytotoxicity Detection Kit; Roche Diagnostics; Laval, QC) as per the manufacturer's instructions; LDH release was expressed as % of total (medium+lysate) LDH content for each well. […] Glucose-6-phosphatase (G6Pase) activity was assessed by measuring the rate of glucose formation in the presence of a non-limiting amount of glucose-6-phosphate (G6P), as done by others [39B, 40B]. Glucose production was measured with a commercial glucose assay kit (AutoKit Glucose; Wako Diagnostics; Richmond, Va.). […] Absorbance of the supernatant was measured at 505 nm at ambient temperature and glucose concentration was calculated from a standard curve performed in parallel. Control wells without exogenous G6P were included on each plate for each treatment condition and activity measured from these wells was subtracted from activity measured in the presence of exogenous G6P. G6Pase activity calculated in this way was then expressed normalized to protein content on a well-by-well basis. […]

Turning to `O=[N+]([O-])c1ccc(O)c([N+](=O)[O-])c1` [2,4-dinitrophenol], the “suppression of G6Pase activity per mg total protein” value in data set [1] is given as 39%. The uncoupling activity result in data set [2] (50 μM in 0.1% DMSO (FIG. 19)) is listed as “increased basal oxygen consumption above the level of ADP-stimulated consumption”. In addition, the measured uncoupling activity in data set [2] (100 μM) stood at 143%. Besides, the “slope of the linear portion of the concentration-to-activity relationship” value in data set [2] (dose-escalation, logarithmic scales) was 0.89. Further, the EC50 in data set [2] (dose-escalation, read-out: U50 (concentration at which 50% uncoupling is induced)) was around 10 µM. For the same compound, the “Uncoupling (%)” value in data set [2] (test conc. 25 μM) was found to be 127 ± 11%; in data set [2] (test conc. 100 μM), 143 ± 5%. Also, the “release of lactate dehydrogenase” value in the data set with H4IIE hepatocytes is “comparable to that of vehicle-treated cells”.

For the origin of these results see patent publication US20140135359A1, “METHODS OF DESIGNING, PREPARING, AND USING NOVEL PROTONOPHORES” (priority 2012, published 2014).
